Test results reported in US9801922B2, “Compositions and methods of treating cancer” (UNIVERSITY OF IOWA RESEARCH FOUNDATION, priority 2011, dated 2017).
Values joined by “and” are separate entries in the source; they are usually repeats but may differ in a detail not shown here. Equal values may be shown once.

How the values were obtained:
[1] = system: MDA-MB231 cells; assay: MitoSOX red oxidation, MDA-MB231; format: cell-based, human
Experimental: FIGS. 4A-4C: MitoSOX oxidation in SUM159, MDA-MB231 and HMECs cells treated with BSO, DTPP and AUR. Asynchronously growing cultures of SUM159 (Panel A) MDA-MB231 (Panel B) and HMECs (Panel C) were plated and treated as described in FIG. 1. Monolayer cultures were harvested and trypsinized, washed once with PBS and labeled 20 minutes with 2 μM MitoSOX (in 0.1% DMSO) in PBS containing 5 mM pyruvate at 37° C. Each sample was then analyzed for the Mean fluorescence Intensity (MFI) of 10,000 cells by flow cytometry. Samples were assayed in triplicate; mean±1 SD of 1 experiment containing 3 treatment dishes per group (n=3), * or ^p<0.001 as compared to Control.
MitoSOX™ red oxidation to estimate mitochondrial superoxide production: To determine if DTPP can alter steady-state levels of superoxide originating from mitochondria in SUM159, MDA-MB231 and HMEC cells, the cationic superoxide sensitive dye, MitoSOX™red (Molecular Probes), was used. Cells were plated and treated as described earlier in clonogenic survival experiment. After the exposure, cells were trypsinized and washed with 5 mM/L pyruvate containing PBS once then labeled with MitoSOX™red (2 μM, in 0.1% DMSO, 20 minutes) at 37° C. After labeling, cells were kept on ice. Samples were analyzed using a FACScan flowcytometer (Becton Dickinson Immunocytometry System, INC., Mountain View, Calif.) (excitation 488 nm, emission 585 nm band-pass filter). The mean fluorescence intensity of 10,000 cells was analyzed in each sample and corrected for autofluorescence from unlabeled cells. The MFI data was normalized to control levels.

[2] = system: MDA-MB231 human breast cancer cells; assay: Clonogenic cell survival, MDA-MB231; format: cell-based; settings: for clonogenic cell killing: 100 μM BSO, 1 μM DTPP 24 h, 500 nM AUR 15 min (FIG. 1B)
Experimental: FIGS. 1A-D: BSO, DTPP and AUR treated SUM159, MDA-MB231 and HMEC Clonogenic survival. In Panel A (SUM 159), B (MDA-MB231) and C(HMEC), 150,000 cells/dish SUM159 or MDA-MB231 and 300,000 cells/dish were plated in 60 mm tissue culture dishes. After 48 hours, cells were given fresh complete HMECs media and treated with 100 μM BSO+/1 μM DTPP for 24 hours. 500 nM AUR were added 15 mins before the trypsinization of cells for clonogenic survival assay. In panel A-C, The error bars represent mean±1 SD of n=1 treatment dishes done in 3 separate experiments where each treatment dish was used to prepare 6-10 replicate cloning dishes for analysis. *p<0.001 as compared to Control. […] Mice growing Sum159 xenograft tumors were treated with 100 μM DTPP in drinking water for 2 weeks followed by i.p. injections of BSO 675 mg/kg followed in 2 hrs with Au 2.7 mg/kg. The day following injections tumors were harvested, digested and stained for ALDH positive cells. Each bar represents an average of at least three tumors. Error bars are SEM. *p<0.05 vs. control.
FIGS. 3A-3B: Clonogenic survival of SUM159 and MDA-MB231 cells treated with BSO, DTPP and AUR in the presence of 20 mM NAC. Asynchronously growing cultures of SUM159 (panel A) and MDA-MB231 (panel B) were plated as described in FIG. 1. After 48 hours, cells were given fresh complete HMECs media and treated with 100 μM BSO+/1 μM DTPP in the presence or absence of 20 mM NAC for 24 hours. 500 nM AUR were added 15 mins before the trypsinization. cells were then collected and plated for clonogenic survival. In panel A, B, The error bars represent mean±1SD of n=1 treatment dishes done in 3 separate experiments where each treatment dish was used to prepare 6-10 replicate cloning dishes for analysis. *p<0.001 as compared to W/O NAC Control. ^p<0.001 as compared to W/NAC Control.
Clonogenic cell survival: To determine whether the DTPP exposure alters the cell proliferation in MDA-MB231, SUM159 and HMECs, 150,000 cells/dish of MDA-MB231 and SUM159 cells, and 300,000 cells/dish HMECs were plated in 60 mm tissue culture dishes. After 48 hours, at 24 hours prior to each clonogenic survival experiment, media in all the dishes were changed to HMECs media and then treated with 100 μM BSO and 1 μM DTPP for 24 h. Cells were treated with AUR for 15 minutes prior to each clonogenic survival experiment. Attached and floating cells in the experimental dishes were collected after trypsinization with 1× trypsin-EDTA (CellGro, Herndon, Va., USA), centrifuged, resuspended in fresh media, and counted using a Coulter counter. Cells were re-plated using appropriate dilutions in their own media and clones were allowed to grow for 14 days in their regular growth media in the presence of 0.1% gentamycin. Cells were then fixed with 70% ethanol and stained with Coomassie blue and colonies of more than 50 cells counted and utilized to calculate clonogenic survival as described (Puck, T. T.; Morkovin, D.; Marcus, P. I.; Cieciura, S. J. Action of x-rays on mammalian cells. II. Survival curves of cells from normal human tissues. J Exp Med 106:485-500; 1957; Spitz, D. R.; Malcolm, R. R.; Roberts, R. J. Cytotoxicity and metabolism of 4-hydroxy-2-nonenal and 2-nonenal in H2O2-resistant cell lines. Do aldehydic by-products of lipid peroxidation contribute to oxidative stress? Biochem J 267:453-459; 1990). […]

Row | SMILES | change in MitoSOX oxidation, in words [1] | clonogenic cell killing [2] | cytotoxicity (clonogenic survival), in words ([2]; 100 μM BSO 24 h) | increase in MitoSOX red oxidation relative to control ([1]; 1 μM DTPP, 100 μM BSO 24 h, 500 nM AUR 15 min) | survival fraction (of control cells) in the presence of NAC ([2]; 1 μM DTPP with 20 mM NAC, 24 hrs) | decrease in cell survival / survival fraction compared to control ([2]; 100 μM BSO and/or 1 μM DTPP for 24 hours)
1 | CC[PH](CC)(CC)[Au][S][C@@H]1O[C@H](COC(C)=O)[C@@H](OC(C)=O)[C@H](OC(C)=O)[C@H]1OC(C)=O [AUR, S-triethylphosphinegold(I)-2,3,4,6-tetra-O-acetyl-1-thio-β-D-glucopyranoside] | did not exhibit any change in MitoSOX oxidation | 50%-55% and 50% | – | – | – | –
2 | CCCCS(=N)(=O)CCC(N)C(=O)O [BSO, L-buthionine-[S,R]-sulfoximine, reference compound] | did not exhibit any change in MitoSOX oxidation | – | did not cause significantly cytotoxicity | – | – | –
3 | CCCCCCCCCC[P+](c1ccccc1)(c1ccccc1)c1ccccc1 [DTPP, Decyl-Triphenylphosphonium] | – | at least 70% | – | 12 fold | at least 70% | 70%-80%
